Test results reported in ChEMBL document CHEMBL1201862, “PubChem BioAssay data set” (2004).
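Five compound concentrations were applied to cells in 96-well plates for 48 hours; endpoints were derived by simple linear interpolation of the resulting dose-response curve. GI50 is the concentration that inhibits growth by half.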 Calls of active or inactive are those of the source. No stated cut-off is given here; in the data, active = GI50 up to about 1.1 µM and inactive = higher.

What was measured:
Experiment in all cases: DTP human tumour cell line panel, 48 h
U-251 = system: U-251
UO-31 = system: UO-31
M14 = system: M14
HT-29 = system: HT-29
CCRF-CEM = system: CCRF-CEM
SK-OV-3 = system: SK-OV-3
SR = system: SR
A549 = system: A549
SK-MEL-28 = system: SK-MEL-28
NCI-H460 = system: NCI-H460
A498 = system: A498
SK-MEL-2 = system: SK-MEL-2
SF-539 = system: SF-539
SF-268 = system: SF-268
IGROV-1 = system: IGROV-1
786-0 = system: 786-0
ACHN = system: ACHN
K562 = system: K562
NCI-H522 = system: NCI-H522
NCI-H23 = system: NCI-H23
LXFL 529 = system: LXFL 529
KM-20L2 = system: KM-20L2
RPMI-8226 = system: RPMI-8226
UACC-62 = system: UACC-62
HL-60 = system: HL-60
SNB-19 = system: SNB-19
NCI-H226 = system: NCI-H226
SNB-78 = system: SNB-78
Malme-3M = system: Malme-3M
OVCAR-8 = system: OVCAR-8
HOP-62 = system: HOP-62
HOP-18 = system: HOP-18
HCC 2998 = system: HCC 2998
OVCAR-5 = system: OVCAR-5
XF498 = system: XF498
RXF 631 = system: RXF 631
KM12 = system: KM12
HOP-92 = system: HOP-92
LOX IMVI = system: LOX IMVI
OVCAR-4 = system: OVCAR-4
UACC-257 = system: UACC-257
CAKI-1 = system: CAKI-1
EKVX = system: EKVX
DMS-273 = system: DMS-273
MOLT-4 = system: MOLT-4
HCT-116 = system: HCT-116
COLO 205 = system: COLO 205
M19-MEL = system: M19-MEL
SNB-75 = system: SNB-75
OVCAR-3 = system: OVCAR-3
SN12C = system: SN12C
DLD-1 = system: DLD-1
SW-620 = system: SW-620
TK-10 = system: TK-10
RXF 393 = system: RXF 393
DMS-114 = system: DMS-114
HCT-15 = system: HCT-15
SK-MEL-5 = system: SK-MEL-5
SF-295 = system: SF-295

For `O=C1C=C(Nc2ccccc2C(=O)CC(=O)C(=O)Nc2ccc(Cl)cc2)c2ccccc2C1=O`, the GI50 (U-251) was 20.1 µM (inactive), the GI50 (UO-31) was 14.7 µM (inactive) and the GI50 (M14) was 10.9 µM (inactive). The GI50 (HT-29) was 41.5 µM (inactive), the GI50 (CCRF-CEM) was 3.59 µM (inactive) and the GI50 (SK-OV-3) was 26.2 µM (inactive). For the same compound, the GI50 (SR) was > 100 µM (inactive), the GI50 (A549) was 14.4 µM (inactive) and the GI50 (SK-MEL-28) was 16.7 µM (inactive). The GI50 (NCI-H460) was 16.3 µM (inactive), the GI50 (A498) was > 100 µM (inactive) and the GI50 (SK-MEL-2) was 17.2 µM (inactive). For the same compound, the GI50 (SF-539) was 20.1 µM (inactive), the GI50 (SF-268) was 14.2 µM (inactive) and the GI50 (IGROV-1) was 27.4 µM (inactive). The GI50 (786-0) was 16.3 µM (inactive), the GI50 (ACHN) was 18.2 µM (inactive) and the GI50 (K562) was 3.24 µM (inactive). For the same compound, the GI50 (NCI-H522) was 7.85 µM (inactive), the GI50 (NCI-H23) was 9.91 µM (inactive) and the GI50 (LXFL 529) was 7.52 µM (inactive). The GI50 (KM-20L2) was > 55.2 µM (inactive), the GI50 (RPMI-8226) was 3.21 µM (inactive) and the GI50 (UACC-62) was 13.3 µM (inactive). For the same compound, the GI50 (HL-60) was 3.32 µM (inactive), the GI50 (SNB-19) was 14 µM (inactive) and the GI50 (NCI-H226) was 24.4 µM (inactive). For the same compound, the GI50 (SNB-78) was 6.37 µM (inactive), the GI50 (Malme-3M) was 11.8 µM (inactive) and the GI50 (OVCAR-8) was 6.59 µM (inactive). The GI50 (HOP-62) was 17.7 µM (inactive), the GI50 (HOP-18) was 0.594 µM (active) and the GI50 (HCC 2998) was 17.5 µM (inactive). For the same compound, the GI50 (OVCAR-5) was 19.6 µM (inactive), the GI50 (XF498) was 13.7 µM (inactive) and the GI50 (RXF 631) was 30 µM (inactive). For the same compound, the GI50 (KM12) was 14.6 µM (inactive), the GI50 (HOP-92) was 21.9 µM (inactive) and the GI50 (LOX IMVI) was 1.93 µM (inactive). The GI50 (OVCAR-4) was 10.9 µM (inactive), the GI50 (UACC-257) was 8.83 µM (inactive) and the GI50 (CAKI-1) was 29.8 µM (inactive). The GI50 (EKVX) was 32.4 µM (inactive), the GI50 (DMS-273) was 13.8 µM (inactive) and the GI50 (MOLT-4) was 5.05 µM (inactive). The GI50 (HCT-116) was 6.18 µM (inactive), the GI50 (COLO 205) was 17.9 µM (inactive) and the GI50 (M19-MEL) was 1.95 µM (inactive). The GI50 (SNB-75) was 17.1 µM (inactive), the GI50 (OVCAR-3) was 2.39 µM (inactive) and the GI50 (SN12C) was 12.6 µM (inactive). For the same compound, the GI50 (DLD-1) was 5.56 µM (inactive), the GI50 (SW-620) was 7.11 µM (inactive) and the GI50 (TK-10) was > 74.5 µM (inactive). For the same compound, the GI50 (RXF 393) was 11.5 µM (inactive), the GI50 (DMS-114) was 3.64 µM (inactive) and the GI50 (HCT-15) was 10.6 µM. The GI50 (SK-MEL-5) was 4.32 µM (inactive).
With `CCCCCCCCC(=O)CCCCCCCCC(=O)O` the GI50 (SF-295) was 26.4 µM (inactive), the GI50 (U-251) was 25.1 µM (inactive) and the GI50 (UO-31) was 33.3 µM (inactive). The GI50 (M14) was 32.1 µM (inactive), the GI50 (HT-29) was 23 µM (inactive) and the GI50 (CCRF-CEM) was 28.6 µM (inactive). For the same compound, the GI50 (SK-OV-3) was > 100 µM (inactive), the GI50 (SR) was 16.2 µM (inactive) and the GI50 (A549) was 19.7 µM (inactive). The GI50 (SK-MEL-28) was 36.1 µM (inactive), the GI50 (NCI-H460) was 21.3 µM (inactive) and the GI50 (A498) was 23.9 µM (inactive). For the same compound, the GI50 (SK-MEL-2) was 36.1 µM (inactive), the GI50 (SF-539) was 19.7 µM (inactive) and the GI50 (SF-268) was 23.9 µM (inactive). The GI50 (IGROV-1) was 18.7 µM (inactive), the GI50 (786-0) was 22.9 µM (inactive) and the GI50 (ACHN) was 25.3 µM (inactive). The GI50 (K562) was 18.9 µM (inactive), the GI50 (NCI-H522) was 25.5 µM (inactive) and the GI50 (NCI-H23) was 30.3 µM (inactive). The GI50 (LXFL 529) was 27 µM (inactive), the GI50 (KM-20L2) was 25.9 µM (inactive) and the GI50 (RPMI-8226) was 16.7 µM (inactive). The GI50 (UACC-62) was 20.1 µM (inactive), the GI50 (HL-60) was 4.09 µM (inactive) and the GI50 (SNB-19) was 61.1 µM (inactive). For the same compound, the GI50 (NCI-H226) was 27.2 µM (inactive), the GI50 (SNB-78) was > 100 µM (inactive) and the GI50 (Malme-3M) was 31.3 µM (inactive). The GI50 (OVCAR-8) was 17.3 µM (inactive), the GI50 (HOP-62) was 26.9 µM (inactive) and the GI50 (HOP-18) was 19.2 µM (inactive). The GI50 (OVCAR-5) was 24.8 µM (inactive), the GI50 (XF498) was 34.2 µM (inactive) and the GI50 (RXF 631) was 21 µM (inactive). The GI50 (KM12) was 17.3 µM (inactive), the GI50 (HOP-92) was 18.9 µM (inactive) and the GI50 (LOX IMVI) was 14.8 µM (inactive). The GI50 (OVCAR-4) was 50.2 µM (inactive), the GI50 (UACC-257) was > 100 µM (inactive) and the GI50 (CAKI-1) was 34.5 µM (inactive). For the same compound, the GI50 (EKVX) was 28.4 µM (inactive), the GI50 (DMS-273) was 25.3 µM (inactive) and the GI50 (MOLT-4) was 14.8 µM (inactive). The GI50 (HCT-116) was 21.6 µM (inactive), the GI50 (COLO 205) was 21.8 µM (inactive) and the GI50 (M19-MEL) was 47.5 µM (inactive). For the same compound, the GI50 (SNB-75) was 37.2 µM (inactive), the GI50 (OVCAR-3) was 18.8 µM (inactive) and the GI50 (SN12C) was 25.6 µM (inactive). The GI50 (DLD-1) was 20.1 µM (inactive), the GI50 (SW-620) was 39.7 µM (inactive) and the GI50 (TK-10) was 33.3 µM (inactive). The GI50 (RXF 393) was 27.4 µM (inactive), the GI50 (DMS-114) was 23 µM (inactive) and the GI50 (SK-MEL-5) was 15.5 µM (inactive).
